The results in this text go back to ChEMBL document CHEMBL1131731, “Synthesis and evaluation of hapalosin and analogs as MDR-reversing agents” (Bioorg Med Chem Lett, 1999).

As a reminder, the IC50 is the concentration that gives 50% inhibition.

SMILES strings stand for the structures. Where only a bound is given, the exact number is not on record here.

Chain of ATP-dependent translocase ABCB1 (P08183 whole entry): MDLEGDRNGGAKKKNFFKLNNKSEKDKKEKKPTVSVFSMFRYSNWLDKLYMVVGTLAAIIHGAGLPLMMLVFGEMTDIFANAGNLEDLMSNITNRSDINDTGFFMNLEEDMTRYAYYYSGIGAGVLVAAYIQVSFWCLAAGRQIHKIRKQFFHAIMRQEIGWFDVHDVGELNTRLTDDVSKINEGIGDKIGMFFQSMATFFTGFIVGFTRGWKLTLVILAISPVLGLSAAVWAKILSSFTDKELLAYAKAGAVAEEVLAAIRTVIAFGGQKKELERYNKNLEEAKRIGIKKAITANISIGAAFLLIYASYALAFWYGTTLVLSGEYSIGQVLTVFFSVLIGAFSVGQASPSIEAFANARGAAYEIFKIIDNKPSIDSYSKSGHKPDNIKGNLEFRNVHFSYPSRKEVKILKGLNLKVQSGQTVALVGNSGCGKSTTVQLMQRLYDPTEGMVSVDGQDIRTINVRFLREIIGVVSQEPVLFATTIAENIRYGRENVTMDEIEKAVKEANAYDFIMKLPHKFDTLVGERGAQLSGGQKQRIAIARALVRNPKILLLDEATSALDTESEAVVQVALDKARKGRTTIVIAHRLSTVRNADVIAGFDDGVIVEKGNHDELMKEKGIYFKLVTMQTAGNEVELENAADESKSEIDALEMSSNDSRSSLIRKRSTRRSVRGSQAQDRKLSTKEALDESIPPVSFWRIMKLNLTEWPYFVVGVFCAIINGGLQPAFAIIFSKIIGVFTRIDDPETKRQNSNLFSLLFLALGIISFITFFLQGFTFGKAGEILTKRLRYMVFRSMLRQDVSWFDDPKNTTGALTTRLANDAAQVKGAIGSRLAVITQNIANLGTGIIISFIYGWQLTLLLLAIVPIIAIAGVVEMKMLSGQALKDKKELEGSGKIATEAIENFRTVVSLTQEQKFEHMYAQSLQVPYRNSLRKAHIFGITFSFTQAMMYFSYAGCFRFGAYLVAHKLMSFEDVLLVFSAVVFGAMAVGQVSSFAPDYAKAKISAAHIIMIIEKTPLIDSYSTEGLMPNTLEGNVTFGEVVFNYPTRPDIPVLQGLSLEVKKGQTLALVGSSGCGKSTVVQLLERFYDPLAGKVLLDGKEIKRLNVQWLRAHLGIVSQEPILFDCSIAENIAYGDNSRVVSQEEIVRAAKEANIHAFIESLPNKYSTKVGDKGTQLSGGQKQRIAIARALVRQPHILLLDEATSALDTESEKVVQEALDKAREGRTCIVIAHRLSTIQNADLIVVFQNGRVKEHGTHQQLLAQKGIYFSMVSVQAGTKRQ

Target in one data set: not listed separately
The data set is described as follows: Evaluated for cytotoxicity using P388/VMDRC.04 cells (a subline of P388 murine leukemia cells expressing human recombinant human P-glycoprotein) in the absence of 10 nM vincristine.
Conditions: not given
As to `CC(C)[C@@H]1OC(=O)[C@@H](C)COC(=O)C[C@@H](O)[C@H](Cc2ccccc2)N(C)C1=O`, the half-maximal inhibitory concentration (IC50) was more than 100 µM.

For `CCCCCCC[C@@H](O)[C@H](C)C(=O)OC`, the IC50 is more than 100 µM.

For the molecule `CCCC[C@H]1OC(=O)C[C@H](OCOC)[C@H](Cc2ccccc2)N(C)C(=O)COC(=O)[C@H]1C`, the IC50 is more than 100 µM.

As for `CCCCCCC[C@H]1OC(=O)C[C@@H](OCOC)[C@H](Cc2ccccc2)N(C)C(=O)[C@H](C(C)C)OC(=O)[C@H]1C`, the IC50 is 34.9 µM.

The next data set addresses ATP-dependent translocase ABCB1 (Homo sapiens, UniProt P08183). The data set can be described thus: (§1) Ratio of IC50 of cytotoxicity to the IC50 of MDR- reversal for P388/VMDRC.04 cells. Format: functional, cell-based. The conditions noted are these: mouse.
With `CCCCCCC[C@H]1OC(=O)C[C@H](OCOC)[C@H](Cc2ccccc2)N(C)C(=O)[C@H](C(C)C)OC(=O)[C@H]1C` (stereo in doubt; 22), the Ratio is 6.2.

The target of the next data set is ATP-dependent translocase ABCB1 (P-glycoprotein) (Homo sapiens, UniProt P08183). Described as §1. It is filed as functional, cell-based. As to conditions: mouse, P388/VMDRC.04 cells.
Chain of ATP-dependent translocase ABCB1 (P-glycoprotein) (P08183 whole entry): as above
As to `CCCCCCC[C@H]1OC(=O)C[C@H](O)[C@H](Cc2ccccc2)N(C)C(=O)[C@H](C(C)C)OC(=O)[C@H]1C` [listing 1 of 2 here], the selectivity ratio stood at 5.4.

For the molecule `CCCC[C@H]1OC(=O)C[C@H](O)[C@H](Cc2ccccc2)N(C)C(=O)COC(=O)[C@H]1C`, the selectivity ratio is more than 4.4.

For the molecule `CCCCCCC[C@H]1OC(=O)C[C@@H](O)[C@H](Cc2ccccc2)N(C)C(=O)COC(=O)[C@H]1C`, the selectivity ratio is 3.8.

For the molecule `CCCCCCC[C@H]1OC(=O)C[C@H](O)[C@H](Cc2ccccc2)N(C)C(=O)[C@H](C(C)C)OC(=O)[C@H]1C` [listing 2 of 2 here], the selectivity ratio was 7.4.

As for `COCO[C@@H]1CC(=O)O[C@H](C)[C@H](C)C(=O)O[C@@H](C(C)C)C(=O)N(C)[C@H]1Cc1ccccc1`, the selectivity ratio is more than 10.

Consider `CCCCCCC[C@H]1OC(=O)C[C@H](O)[C@H](Cc2ccccc2)N(C)C(=O)C(C)(C)OC(=O)[C@H]1C`, for which the selectivity ratio came to 6.6.

As to `CCCCCCC[C@@H]1CC(=O)O[C@@H](C(C)C)C(=O)N(C)[C@@H](Cc2ccccc2)[C@H](O)CC(=O)O1`, the selectivity ratio is 3.8.

For `CC(C)[C@@H]1OC(=O)[C@@H](C)[C@@H](C)OC(=O)C[C@@H](O)[C@H](Cc2ccccc2)N(C)C1=O`, the selectivity ratio was more than 9.

Take `COC(=O)C[C@@H](O)[C@H](Cc1ccccc1)N(C)C(=O)OCc1ccccc1`: the selectivity ratio came out at 5.2.

Regarding `COCO[C@H]1CC(=O)O[C@H](C)[C@H](C)C(=O)OCC(=O)N(C)[C@H]1Cc1ccccc1`, the selectivity ratio was more than 2.3.

Consider `CC(C)[C@@H]1OC(=O)[C@@H](C)COC(=O)C[C@@H](O)[C@H](Cc2ccccc2)N(C)C1=O`, for which the selectivity ratio was more than 7.5.

With `CCCCCCC[C@@H]1CC(=O)O[C@@H](C(C)C)C(=O)N(C)[C@@H](Cc2ccccc2)[C@H](OCOC)CC(=O)O1`, the selectivity ratio is 5.7.

As for `CCCC[C@H]1OC(=O)C[C@H](OCOC)[C@H](Cc2ccccc2)N(C)C(=O)COC(=O)[C@H]1C`, the selectivity ratio was more than 8.5.

As to `COCO[C@H](CC(=O)OC)[C@H](Cc1ccccc1)N(C)C(=O)OCc1ccccc1`, the selectivity ratio came out at 5.7.

On to `CCCCCCC[C@H]1OC(=O)C[C@@H](OCOC)[C@H](Cc2ccccc2)N(C)C(=O)COC(=O)[C@H]1C`, for which the selectivity ratio stood at 6.5.

As for `CCCCCCC[C@H]1OC(=O)C[C@@H](OCOC)[C@H](Cc2ccccc2)N(C)C(=O)[C@H](C)OC(=O)[C@H]1C`, the selectivity ratio came out at 3.2.

As to `CCCCCCC[C@H]1OC(=O)C[C@H](OCOC)[C@H](Cc2ccccc2)N(C)C(=O)C(C)(C)OC(=O)[C@H]1C`, the selectivity ratio came to 3.5.

As for `COCO[C@@H]1CC(=O)OC[C@H](C)C(=O)O[C@@H](C(C)C)C(=O)N(C)[C@H]1Cc1ccccc1`, the selectivity ratio is more than 15.9.

For the molecule `CCCCCCC[C@H]1OC(=O)CC[C@H](Cc2ccccc2)N(C)C(=O)[C@H](C(C)C)OC(=O)[C@H]1C`, the selectivity ratio was 5.6.

Take `CCCCCCC[C@@H](O)[C@H](C)C(=O)O[C@H](C(=O)OC)C(C)C`: the selectivity ratio is more than 5.2.

On to `CCCCCCC[C@H]1OC(=O)C[C@@H](OCOC)[C@H](Cc2ccccc2)N(C)C(=O)[C@H](C(C)C)OC(=O)[C@H]1C`, for which the selectivity ratio is 5.7.

`CCCCCCC[C@H]1OC(=O)C[C@@H](O)[C@H](Cc2ccccc2)N(C)C(=O)[C@H](C)OC(=O)[C@H]1C`: the selectivity ratio worked out at 4.3.

Regarding `CCCCCCC[C@H]1OC(=O)C[C@H](OCOC)[C@H](Cc2ccccc2)N(C)C(=O)[C@H](C(C)C)OC(=O)[C@H]1C` (stereo in doubt; 14), the selectivity ratio turned out to be 7.5.

Consider `CCCCCCC[C@H]1OC(=O)C[C@@H](O)[C@H](Cc2ccccc2)N(C)C(=O)[C@H](C(C)C)OC(=O)[C@H]1C` [HAPALOSIN], for which the selectivity ratio was determined as 3.
